{"source": "ChEMBL document CHEMBL1201862", "about": "“PubChem BioAssay data set” (2004)", "key": {"[1]": {"test": "inhibitors of intracellular T. cruzi replication, confirmation, NIH3T3 host cells, beta-gal luminescence (AID 2044);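 further: luminescent beta-galactosidase reporter signal from transgenic T. cruzi replicating inside host cells; inhibitors lower the luminescence signal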", "format": "functional, cell-based"}, "[2]": {"test": "cytotoxicity toward NIH3T3 fibroblasts, dose response, counter-screen, cell-based, ATP luminescence, mouse fibroblasts (AID 2010);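 further: cells exposed to compound for about 90 hours before reading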", "format": "functional"}, "[3]": {"target": "Induced myeloid leukemia cell differentiation protein Mcl-1 (Homo sapiens, UniProt Q07820)", "sequence (Q07820 whole entry)": "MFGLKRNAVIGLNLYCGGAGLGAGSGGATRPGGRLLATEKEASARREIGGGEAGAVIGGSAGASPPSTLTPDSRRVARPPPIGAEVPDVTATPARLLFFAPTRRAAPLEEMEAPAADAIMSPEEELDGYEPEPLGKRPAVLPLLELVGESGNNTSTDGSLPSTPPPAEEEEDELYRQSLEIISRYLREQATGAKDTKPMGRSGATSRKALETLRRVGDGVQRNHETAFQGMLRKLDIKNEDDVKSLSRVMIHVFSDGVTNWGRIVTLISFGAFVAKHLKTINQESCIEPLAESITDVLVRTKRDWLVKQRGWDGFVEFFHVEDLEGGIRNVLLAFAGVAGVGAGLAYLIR", "format": "functional"}, "[4]": {"test": "Luminescence Cell-Based Dose Retest to Confirm Inhibitors of Cancer Stem Cells. [Related pubchem assays (depositor defined):AID2717, AID2721]", "format": "functional", "conditions": "Homo sapiens"}, "[5]": {"target": "T1, Heat shock factor protein 1 (Mus musculus, UniProt P38532)", "T1 sequence (P38532 whole entry)": "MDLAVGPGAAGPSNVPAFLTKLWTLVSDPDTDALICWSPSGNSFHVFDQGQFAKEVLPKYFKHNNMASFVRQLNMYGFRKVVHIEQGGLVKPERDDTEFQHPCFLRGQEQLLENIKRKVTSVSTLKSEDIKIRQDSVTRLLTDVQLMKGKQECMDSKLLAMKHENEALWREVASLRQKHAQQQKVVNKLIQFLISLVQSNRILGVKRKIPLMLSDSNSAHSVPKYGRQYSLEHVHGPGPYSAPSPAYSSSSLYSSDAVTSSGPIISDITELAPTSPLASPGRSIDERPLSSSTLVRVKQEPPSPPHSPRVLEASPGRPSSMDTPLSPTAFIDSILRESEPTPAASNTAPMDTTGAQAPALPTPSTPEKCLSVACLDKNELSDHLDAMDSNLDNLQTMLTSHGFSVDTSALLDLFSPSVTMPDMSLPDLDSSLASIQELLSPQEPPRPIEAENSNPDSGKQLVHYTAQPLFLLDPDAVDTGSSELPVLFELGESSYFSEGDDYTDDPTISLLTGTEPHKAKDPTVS", "test": "HSF1 potentiators in luciferase reporter cells, confirmation, cell-based, NIH3T3, luminescence, dose retest (AID 435004);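 further: stress induced by proteasome inhibitor MG132 added 30 min after compound; actives raise luminescence as potentiators of the MG132 stress response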", "format": "functional"}, "[6]": {"tested_on": "Vero", "test": "cells", "format": "functional", "conditions": "Chlorocebus sabaeus"}, "[7]": {"target": "T2, Protein skinhead-1 (Caenorhabditis elegans, UniProt P34707)", "T2 sequence (P34707 whole entry)": "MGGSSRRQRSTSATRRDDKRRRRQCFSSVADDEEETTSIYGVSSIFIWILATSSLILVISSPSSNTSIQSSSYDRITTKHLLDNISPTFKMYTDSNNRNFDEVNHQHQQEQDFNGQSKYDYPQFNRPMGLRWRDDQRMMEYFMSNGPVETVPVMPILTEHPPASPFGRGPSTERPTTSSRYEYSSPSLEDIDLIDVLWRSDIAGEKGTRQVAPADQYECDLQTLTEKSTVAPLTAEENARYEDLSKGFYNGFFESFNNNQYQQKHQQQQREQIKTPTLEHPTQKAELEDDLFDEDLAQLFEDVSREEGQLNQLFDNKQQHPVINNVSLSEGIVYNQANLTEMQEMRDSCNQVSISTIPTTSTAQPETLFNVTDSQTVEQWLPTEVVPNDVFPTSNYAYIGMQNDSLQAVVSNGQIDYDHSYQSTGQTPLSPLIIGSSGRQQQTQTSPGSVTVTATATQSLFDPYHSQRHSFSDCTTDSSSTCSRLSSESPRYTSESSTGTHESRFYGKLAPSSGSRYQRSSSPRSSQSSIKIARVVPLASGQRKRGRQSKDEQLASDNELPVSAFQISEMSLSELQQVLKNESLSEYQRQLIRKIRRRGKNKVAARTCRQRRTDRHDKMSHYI", "format": "functional"}, "[8]": {"target": "T3, Carboxy-terminal domain RNA polymerase II polypeptide A small phosphatase 1 (Homo sapiens, UniProt Q9GZU7)", "T3 sequence (Q9GZU7 whole entry)": "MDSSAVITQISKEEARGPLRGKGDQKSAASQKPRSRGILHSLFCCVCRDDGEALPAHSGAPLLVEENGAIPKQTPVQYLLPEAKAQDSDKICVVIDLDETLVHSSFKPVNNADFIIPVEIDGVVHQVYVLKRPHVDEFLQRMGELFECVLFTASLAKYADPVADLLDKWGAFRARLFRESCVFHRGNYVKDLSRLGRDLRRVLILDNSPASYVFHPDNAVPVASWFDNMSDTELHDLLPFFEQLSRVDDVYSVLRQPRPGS", "test": "inhibitors of CTDSP1, concentration-response testing, biochemical assay, absorbance-based, actives from ultra-high-throughput screening (AID 540297)", "format": "functional"}, "[9]": {"target": "Cytochrome P450 3A4 (Homo sapiens, UniProt P08684)", "sequence (P08684 whole entry)": "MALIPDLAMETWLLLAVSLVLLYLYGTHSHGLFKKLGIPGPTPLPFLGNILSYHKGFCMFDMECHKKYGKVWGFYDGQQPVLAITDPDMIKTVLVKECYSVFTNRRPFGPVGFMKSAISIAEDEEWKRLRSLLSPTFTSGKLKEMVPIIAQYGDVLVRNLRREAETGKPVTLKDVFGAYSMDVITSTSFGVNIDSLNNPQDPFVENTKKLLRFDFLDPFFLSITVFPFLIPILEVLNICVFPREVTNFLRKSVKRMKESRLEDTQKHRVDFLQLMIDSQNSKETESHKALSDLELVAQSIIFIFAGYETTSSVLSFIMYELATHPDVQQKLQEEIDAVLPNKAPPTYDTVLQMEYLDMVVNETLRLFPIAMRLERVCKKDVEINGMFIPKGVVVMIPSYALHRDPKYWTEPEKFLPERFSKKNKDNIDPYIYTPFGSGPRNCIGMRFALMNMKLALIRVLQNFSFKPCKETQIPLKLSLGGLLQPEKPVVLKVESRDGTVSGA"}, "[10]": {"target": "Cytochrome P450 2C9 (Homo sapiens, UniProt P11712)", "sequence (P11712 whole entry)": "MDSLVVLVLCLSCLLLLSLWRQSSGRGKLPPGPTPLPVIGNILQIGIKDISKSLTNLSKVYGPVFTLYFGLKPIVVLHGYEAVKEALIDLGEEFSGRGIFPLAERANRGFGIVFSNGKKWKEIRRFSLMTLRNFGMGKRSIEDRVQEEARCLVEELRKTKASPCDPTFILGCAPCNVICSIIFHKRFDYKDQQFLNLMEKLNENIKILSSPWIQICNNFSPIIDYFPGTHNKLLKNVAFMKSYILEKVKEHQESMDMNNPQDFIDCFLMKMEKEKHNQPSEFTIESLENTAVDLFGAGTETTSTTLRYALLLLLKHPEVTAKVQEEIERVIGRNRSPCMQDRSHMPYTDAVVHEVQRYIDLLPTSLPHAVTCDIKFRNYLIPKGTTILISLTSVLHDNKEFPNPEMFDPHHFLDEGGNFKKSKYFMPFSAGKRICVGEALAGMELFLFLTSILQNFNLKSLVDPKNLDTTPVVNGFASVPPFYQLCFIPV"}, "[11]": {"target": "T4, Fatty acid synthase (Homo sapiens, UniProt P49327)", "T4 sequence (P49327 whole entry, the tested form may be a part)": "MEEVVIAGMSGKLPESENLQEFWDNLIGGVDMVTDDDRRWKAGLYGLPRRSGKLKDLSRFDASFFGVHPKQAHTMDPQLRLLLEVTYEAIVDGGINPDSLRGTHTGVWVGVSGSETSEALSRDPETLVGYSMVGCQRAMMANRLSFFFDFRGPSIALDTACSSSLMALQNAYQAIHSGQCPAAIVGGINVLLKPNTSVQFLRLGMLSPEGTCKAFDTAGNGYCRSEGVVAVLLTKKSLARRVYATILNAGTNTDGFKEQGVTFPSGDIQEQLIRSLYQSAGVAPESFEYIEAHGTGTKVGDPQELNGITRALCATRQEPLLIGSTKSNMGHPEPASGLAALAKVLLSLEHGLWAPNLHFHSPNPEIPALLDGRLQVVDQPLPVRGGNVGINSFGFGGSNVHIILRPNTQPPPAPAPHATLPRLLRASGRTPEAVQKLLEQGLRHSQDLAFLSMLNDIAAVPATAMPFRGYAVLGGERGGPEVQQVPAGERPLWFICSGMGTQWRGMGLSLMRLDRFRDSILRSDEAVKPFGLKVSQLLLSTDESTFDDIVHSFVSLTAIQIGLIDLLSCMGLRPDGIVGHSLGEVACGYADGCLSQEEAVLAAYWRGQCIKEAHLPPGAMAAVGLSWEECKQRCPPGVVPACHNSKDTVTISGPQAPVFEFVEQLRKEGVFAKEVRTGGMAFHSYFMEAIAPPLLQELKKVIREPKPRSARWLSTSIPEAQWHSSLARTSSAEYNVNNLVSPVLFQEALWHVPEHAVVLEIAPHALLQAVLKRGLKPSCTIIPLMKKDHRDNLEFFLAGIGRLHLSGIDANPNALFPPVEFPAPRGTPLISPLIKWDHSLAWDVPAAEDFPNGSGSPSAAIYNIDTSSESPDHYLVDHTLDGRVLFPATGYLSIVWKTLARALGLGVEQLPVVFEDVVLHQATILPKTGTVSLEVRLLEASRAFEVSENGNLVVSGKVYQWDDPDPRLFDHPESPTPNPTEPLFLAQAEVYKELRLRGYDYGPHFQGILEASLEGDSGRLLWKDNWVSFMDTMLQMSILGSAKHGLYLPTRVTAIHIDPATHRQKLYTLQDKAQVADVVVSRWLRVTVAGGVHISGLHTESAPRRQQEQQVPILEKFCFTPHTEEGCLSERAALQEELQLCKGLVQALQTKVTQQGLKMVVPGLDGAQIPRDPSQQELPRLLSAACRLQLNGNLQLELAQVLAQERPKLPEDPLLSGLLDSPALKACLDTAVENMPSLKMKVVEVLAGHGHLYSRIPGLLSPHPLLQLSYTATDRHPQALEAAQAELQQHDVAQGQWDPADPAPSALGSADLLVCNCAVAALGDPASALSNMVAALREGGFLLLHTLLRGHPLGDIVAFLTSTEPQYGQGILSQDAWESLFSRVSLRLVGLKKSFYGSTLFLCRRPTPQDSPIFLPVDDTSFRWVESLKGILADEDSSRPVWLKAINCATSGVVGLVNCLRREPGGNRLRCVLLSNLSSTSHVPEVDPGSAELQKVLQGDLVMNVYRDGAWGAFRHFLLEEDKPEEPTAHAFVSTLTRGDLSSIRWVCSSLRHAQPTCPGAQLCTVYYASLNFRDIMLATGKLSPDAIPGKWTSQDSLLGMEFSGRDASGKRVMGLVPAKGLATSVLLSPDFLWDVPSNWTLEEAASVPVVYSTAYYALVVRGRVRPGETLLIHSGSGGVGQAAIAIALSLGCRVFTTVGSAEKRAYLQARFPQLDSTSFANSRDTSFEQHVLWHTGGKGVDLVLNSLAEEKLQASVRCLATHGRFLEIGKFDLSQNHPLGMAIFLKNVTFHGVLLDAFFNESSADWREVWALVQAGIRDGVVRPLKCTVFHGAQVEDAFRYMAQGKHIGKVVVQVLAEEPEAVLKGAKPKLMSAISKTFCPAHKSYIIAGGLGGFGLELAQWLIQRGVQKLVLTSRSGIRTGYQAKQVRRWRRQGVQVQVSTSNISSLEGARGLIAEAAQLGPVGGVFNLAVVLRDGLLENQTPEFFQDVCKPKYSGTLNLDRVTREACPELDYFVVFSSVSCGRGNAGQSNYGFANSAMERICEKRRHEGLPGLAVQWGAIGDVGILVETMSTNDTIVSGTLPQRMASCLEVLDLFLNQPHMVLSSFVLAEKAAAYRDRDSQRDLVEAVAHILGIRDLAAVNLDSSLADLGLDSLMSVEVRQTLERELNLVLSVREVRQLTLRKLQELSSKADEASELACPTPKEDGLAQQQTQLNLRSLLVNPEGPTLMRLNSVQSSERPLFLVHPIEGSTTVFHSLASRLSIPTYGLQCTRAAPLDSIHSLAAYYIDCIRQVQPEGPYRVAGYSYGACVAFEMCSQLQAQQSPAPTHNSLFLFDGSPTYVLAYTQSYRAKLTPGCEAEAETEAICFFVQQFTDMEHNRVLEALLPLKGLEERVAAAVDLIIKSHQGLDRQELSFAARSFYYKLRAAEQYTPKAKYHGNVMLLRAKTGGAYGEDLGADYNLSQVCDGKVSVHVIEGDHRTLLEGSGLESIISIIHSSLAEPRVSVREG", "test": "FAS thioesterase domain inhibitors, dose response, biochemical, endpoint fluorescence intensity, uHTS hits (AID 624327);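 further: fluorescence from hydrolysis of an O-methyl fluorescein acyl ester substrate by the enzyme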", "format": "functional"}, "[12]": {"target": "T4, Fatty acid synthase", "test": "FAS thioesterase domain inhibitors, dose response, biochemical, kinetic fluorescence intensity (AID 624326);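 further: rate of fluorescence rise from hydrolysis of a fluorogenic O-methyl fluorescein ester substrate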", "format": "functional"}, "[13]": {"test": "HEp-2 cell cytotoxicity, dose response, cytotoxicity control for RSV inhibitor project, HTS (AID 2410)", "format": "functional", "conditions": "human respiratory syncytial virus"}, "[14]": {"tested_on": "Streptococcus sp. 'group A'", "test": "growth inhibition of control SK(-) GAS strain, dose response, counter-screen for streptokinase expression inhibitor project, luminescence, kanamycin, BacTiterGlo, confirmation (AID 1900)", "format": "functional, organism-based"}, "[15]": {"target": "T5, Streptokinase A (Streptococcus pyogenes serotype M1, UniProt P10520)", "T5 sequence (P10520 whole entry)": "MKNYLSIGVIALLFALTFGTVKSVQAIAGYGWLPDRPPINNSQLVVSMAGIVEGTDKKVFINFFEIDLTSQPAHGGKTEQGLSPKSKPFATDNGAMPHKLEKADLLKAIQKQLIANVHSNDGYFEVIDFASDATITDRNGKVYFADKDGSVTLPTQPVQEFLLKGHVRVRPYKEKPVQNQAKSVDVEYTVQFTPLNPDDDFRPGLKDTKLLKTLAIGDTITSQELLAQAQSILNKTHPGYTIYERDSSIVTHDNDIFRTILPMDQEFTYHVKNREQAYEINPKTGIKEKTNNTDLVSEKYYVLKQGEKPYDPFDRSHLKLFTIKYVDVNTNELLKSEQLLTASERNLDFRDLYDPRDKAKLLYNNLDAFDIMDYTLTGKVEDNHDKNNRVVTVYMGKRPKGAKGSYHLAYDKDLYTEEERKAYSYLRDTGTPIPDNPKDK", "test": "S. pyogenes streptokinase expression inhibitors, potency, dose response, plasminogen activation absorbance, OD405 (AID 1914);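 further: secreted streptokinase activity via plasminogen activation per viability signal from cell pellet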", "format": "functional, Streptococcus pyogenes M1 GAS"}, "[16]": {"test": "growth suppression of PTEN-null colon cells, dose response, cell-based, HCT116 PTEN knockout (AID 1047);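 further: HCT116 colon tumor cells with PTEN knocked out; cells exposed to compound for 60 hours before readout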", "format": "functional"}, "[17]": {"test": "growth suppression of beta-catenin-knockout colon cells, dose response, cell-based, HCT116, human colon tumor (AID 1045);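 further: HCT116 colon tumor cells with beta catenin knocked out; cells exposed to compound for 60 hours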", "format": "functional"}, "[18]": {"tested_on": "Streptococcus", "test": "Group A Streptococcus viability loss, dose response, counter-screen for streptokinase expression inhibitor project, luminescence, BacTiterGlo (AID 1915);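 further: potency for reduction of bacterial viability or growth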", "format": "functional, organism-based"}, "[19]": {"target": "T6, Cytochrome P450 1A2 (Homo sapiens, UniProt P05177)", "T6 sequence (P05177 whole entry)": "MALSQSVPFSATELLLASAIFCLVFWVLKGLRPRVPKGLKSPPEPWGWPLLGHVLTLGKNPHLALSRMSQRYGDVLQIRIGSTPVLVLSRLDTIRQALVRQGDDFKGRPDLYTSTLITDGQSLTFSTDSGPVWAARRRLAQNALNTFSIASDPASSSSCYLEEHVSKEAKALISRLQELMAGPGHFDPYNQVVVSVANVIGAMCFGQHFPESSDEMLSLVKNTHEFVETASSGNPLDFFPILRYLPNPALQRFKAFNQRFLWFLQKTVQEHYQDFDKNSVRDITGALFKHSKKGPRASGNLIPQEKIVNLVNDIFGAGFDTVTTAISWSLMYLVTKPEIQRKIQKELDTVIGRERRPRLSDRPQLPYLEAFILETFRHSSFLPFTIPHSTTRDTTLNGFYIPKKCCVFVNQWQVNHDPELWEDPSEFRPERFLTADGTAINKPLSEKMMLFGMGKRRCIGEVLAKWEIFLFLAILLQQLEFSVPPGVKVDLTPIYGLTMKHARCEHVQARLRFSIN"}}, "note": "Activity calls are given as the source filed them."}
{"smiles": "CCC1CSC(Nc2ccc(C(=O)/C=C/c3cccc(C)c3)cc2)=N1", "note": "(stereo not given)", "values": [{"measurement": "EC50", "setting": "[1]", "value": "3.06 µM (active)"}, {"measurement": "EC50", "setting": "[2]", "value": "> 60 µM (not active)"}, {"measurement": "IC50", "setting": "[3]", "value": "1.66 µM (active)"}, {"measurement": "AC50", "setting": "[4]", "value": "5.77 µM (active)"}, {"measurement": "EC50", "setting": "[5]", "value": "12.9 µM (active)"}, {"measurement": "CC50", "setting": "[6]", "value": "> 25 µM (active)"}, {"measurement": "IC50", "setting": "[7]", "value": "> 100 µM (inactive)"}]}
{"smiles": "Cc1c(Cl)cnc(NC(=O)COC(=O)c2ccc(S(=O)(=O)NCc3ccco3)cc2)c1Cl", "values": [{"measurement": "IC50", "setting": "[8]", "value": "8.67 µM (active)"}]}
{"smiles": "COc1ccc(CC(=O)N2CCCC(C)C2)cc1", "note": "(stereo not given)", "values": [{"measurement": "IC50", "setting": "[7]", "value": "> 100 µM (inactive)"}]}
{"smiles": "Cc1ccc2[nH]c(/C(C#N)=C\\c3ccc(Oc4ccc(C(F)(F)F)cc4[N+](=O)[O-])cc3)nc2c1", "values": [{"measurement": "IC50", "setting": "[8]", "value": "2.42 µM (active)"}]}
{"smiles": "O=C(Oc1ccc(C(=S)N2CCOCC2)cc1Br)c1cc(Cl)ccc1Cl", "values": [{"measurement": "EC50", "setting": "[5]", "value": "68.8 µM (active)"}, {"measurement": "AC50", "setting": "[9]", "value": "12.6 µM (inconclusive)"}, {"measurement": "AC50", "setting": "[10]", "value": "inconclusive"}]}
{"smiles": "O=C(C1CCN(S(=O)(=O)c2c(Cl)cccc2Cl)CC1)N1CCCC1", "values": [{"measurement": "IC50", "setting": "[7]", "value": "> 100 µM (inactive)"}]}
{"smiles": "O=C(/C=C/c1cccc([N+](=O)[O-])c1)N1CCN(c2ccccc2F)CC1", "values": [{"measurement": "IC50", "setting": "[11]", "value": "11.6 µM (active)"}, {"measurement": "IC50", "setting": "[12]", "value": "6.52 µM (active)"}]}
{"smiles": "COc1ccc(N(C(=O)CNC(=O)c2ccco2)C(C(=O)NC2CCCCC2)c2cccnc2)cc1", "note": "(stereo not given)", "values": [{"measurement": "IC50", "setting": "[7]", "value": "> 100 µM (inactive)"}]}
{"smiles": "COc1ccc2cc3cc(C(=O)N4CCCCCC4)oc3nc2c1", "values": [{"measurement": "IC50", "setting": "[11]", "value": "3.92 µM (active)"}, {"measurement": "IC50", "setting": "[12]", "value": "3.37 µM (active)"}]}
{"smiles": "O=C(O)/C(=C/c1ccco1)NC(=O)c1ccccc1", "values": [{"measurement": "IC50", "setting": "[8]", "value": "6.04 µM (active)"}]}
{"smiles": "CCCCOc1ccc(-c2c(C#N)c(N)nc(SCC(N)=O)c2C#N)cc1", "values": [{"measurement": "CC50", "setting": "[13]", "value": "19.9 µM (active)"}, {"measurement": "EC50", "setting": "[14]", "value": "6.77 µM (active)"}, {"measurement": "EC50", "setting": "[15]", "value": "> 150 µM (not active)"}, {"measurement": "EC50", "setting": "[16]", "value": "15.8 µM (active)"}, {"measurement": "EC50", "setting": "[17]", "value": "21.2 µM (active)"}, {"measurement": "EC50", "setting": "[18]", "value": "> 150 µM (not active)"}, {"measurement": "IC50", "setting": "[11]", "value": "1.12 µM (active)"}, {"measurement": "IC50", "setting": "[12]", "value": "0.644 µM (active)"}]}
{"smiles": "CC(C)(C)c1ccc2c(c1)OC(C(=O)N/N=C/c1ccc([N+](=O)[O-])o1)CO2", "note": "(stereo not given)", "values": [{"measurement": "EC50", "setting": "[14]", "value": "5.27 µM (active)"}, {"measurement": "EC50", "setting": "[15]", "value": "5.82 µM (active)"}, {"measurement": "EC50", "setting": "[1]", "value": "0.102 µM (active)"}, {"measurement": "EC50", "setting": "[2]", "value": "> 60 µM (not active)"}, {"measurement": "EC50", "setting": "[18]", "value": "10.3 µM (active)"}, {"measurement": "CC50", "setting": "[6]", "value": "> 25 µM (active)"}, {"measurement": "IC50", "setting": "[8]", "value": "5.41 µM (active)"}]}
{"smiles": "Cc1[nH]n(-c2ccccc2)c(=O)c1CCOC(=O)c1ccc(C(F)(F)F)cc1", "values": [{"measurement": "AC50", "setting": "[19]", "value": "15.8 µM (inconclusive)"}, {"measurement": "AC50", "setting": "[10]", "value": "inconclusive"}]}
{"smiles": "CCOC(=O)c1cc2c(=O)n3ccccc3nc2n(Cc2ccco2)/c1=N/C(=O)c1ccc(OC)cc1", "values": [{"measurement": "IC50", "setting": "[11]", "value": "14.6 µM (active)"}, {"measurement": "IC50", "setting": "[12]", "value": "80 µM (inactive)"}]}
{"smiles": "O=c1c2ccccc2sc2ccccc12", "values": [{"measurement": "IC50", "setting": "[7]", "value": "59.3 µM (inactive)"}]}
